In data set [1] the target is T1, integrin α4β1 (Homo sapiens, UniProt P05556+P13612).
T1 construct: Jurkat cells were collected, washed twice using DPBS buffer; endogenous in cells; host or cells: Jurkat cells
Kind of data set: Integrin α4β1-mediated cell adhesion assay (Jurkat cells on VCAM). Format: cell-based. The note with it: for IC50: Jurkat cells adhering to VCAM-1, α4β1-mediated cell adhesion; for α4β1/α4β7: selectivity ratio, Jurkat (α4β1)/VCAM-1 IC50 over RPMI-8866 (α4β7)/MadCAM-1 IC50. As to the method: VCAM was formulated into a final concentration of […] with a coating buffer, 50 μl of the solution was transferred to a 96-well plate, and the plate was coated with same at 4° C. overnight. The plate was washed with coating buffer three times, then 150 μl of a blocking solution (coating buffer containing 1% BSA) was added, and the plate was blocked at 37° C. for 1 h. Jurkat cells were collected, washed twice using DPBS buffer, and then resuspended to 4×10^6 cells/ml with an action buffer. 50 μl of the cell suspension was transferred to a 96-well plate so that the cell density reached 2×10^5 cells/well. Then 1 μl of the test compound at different concentration or DMSO was added and the plate was incubated at 37° C. for 1 h. The plate was washed with coating buffer to remove non-adherent cells. 50 μl of a substrate (4-nitrophenyl-N-acetyl-β-D-glucosaminide) was added and the plate was incubated at 37° C. for 2 h.
Coating buffer: DMEM+20 mM HEPES+0.4 mM MnCl2
Action buffer: DMEM+20 mM HEPES+0.1% BSA+0.4 mM MnCl2
DMEM: dulbecco's modified eagle medium;
HEPES: 2-[4-(2-hydroxyethyl)piperazin-1-yl]ethanesulfonic acid

The target in data set [2] is T2, integrin α4β7 (Homo sapiens, UniProt P13612+P26010).
T2 sequence (P13612 34-1032): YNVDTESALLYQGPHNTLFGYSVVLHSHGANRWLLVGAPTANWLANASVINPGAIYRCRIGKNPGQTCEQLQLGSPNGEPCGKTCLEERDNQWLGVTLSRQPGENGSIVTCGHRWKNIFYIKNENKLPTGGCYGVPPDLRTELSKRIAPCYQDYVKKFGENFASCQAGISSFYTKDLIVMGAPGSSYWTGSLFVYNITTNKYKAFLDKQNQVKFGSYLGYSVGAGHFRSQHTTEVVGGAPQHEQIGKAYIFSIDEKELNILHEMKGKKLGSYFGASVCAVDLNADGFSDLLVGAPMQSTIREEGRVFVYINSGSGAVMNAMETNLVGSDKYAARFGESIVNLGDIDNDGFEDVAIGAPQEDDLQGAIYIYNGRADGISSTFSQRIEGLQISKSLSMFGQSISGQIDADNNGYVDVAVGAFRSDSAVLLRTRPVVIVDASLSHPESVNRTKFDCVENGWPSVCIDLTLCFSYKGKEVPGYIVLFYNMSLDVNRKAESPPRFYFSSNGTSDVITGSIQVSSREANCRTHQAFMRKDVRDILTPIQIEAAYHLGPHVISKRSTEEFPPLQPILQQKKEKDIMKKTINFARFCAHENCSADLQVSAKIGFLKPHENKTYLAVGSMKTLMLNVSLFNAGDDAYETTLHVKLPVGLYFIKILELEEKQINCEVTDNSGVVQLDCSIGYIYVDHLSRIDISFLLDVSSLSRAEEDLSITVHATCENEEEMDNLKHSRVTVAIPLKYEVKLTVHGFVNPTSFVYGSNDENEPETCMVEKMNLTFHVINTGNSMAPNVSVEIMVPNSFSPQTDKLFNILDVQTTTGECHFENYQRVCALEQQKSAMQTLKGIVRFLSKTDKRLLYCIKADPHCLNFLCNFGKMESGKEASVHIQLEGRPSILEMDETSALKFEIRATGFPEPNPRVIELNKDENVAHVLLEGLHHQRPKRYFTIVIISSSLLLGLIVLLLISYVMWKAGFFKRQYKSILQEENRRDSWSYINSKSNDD
T2 sequence (P26010 20-798): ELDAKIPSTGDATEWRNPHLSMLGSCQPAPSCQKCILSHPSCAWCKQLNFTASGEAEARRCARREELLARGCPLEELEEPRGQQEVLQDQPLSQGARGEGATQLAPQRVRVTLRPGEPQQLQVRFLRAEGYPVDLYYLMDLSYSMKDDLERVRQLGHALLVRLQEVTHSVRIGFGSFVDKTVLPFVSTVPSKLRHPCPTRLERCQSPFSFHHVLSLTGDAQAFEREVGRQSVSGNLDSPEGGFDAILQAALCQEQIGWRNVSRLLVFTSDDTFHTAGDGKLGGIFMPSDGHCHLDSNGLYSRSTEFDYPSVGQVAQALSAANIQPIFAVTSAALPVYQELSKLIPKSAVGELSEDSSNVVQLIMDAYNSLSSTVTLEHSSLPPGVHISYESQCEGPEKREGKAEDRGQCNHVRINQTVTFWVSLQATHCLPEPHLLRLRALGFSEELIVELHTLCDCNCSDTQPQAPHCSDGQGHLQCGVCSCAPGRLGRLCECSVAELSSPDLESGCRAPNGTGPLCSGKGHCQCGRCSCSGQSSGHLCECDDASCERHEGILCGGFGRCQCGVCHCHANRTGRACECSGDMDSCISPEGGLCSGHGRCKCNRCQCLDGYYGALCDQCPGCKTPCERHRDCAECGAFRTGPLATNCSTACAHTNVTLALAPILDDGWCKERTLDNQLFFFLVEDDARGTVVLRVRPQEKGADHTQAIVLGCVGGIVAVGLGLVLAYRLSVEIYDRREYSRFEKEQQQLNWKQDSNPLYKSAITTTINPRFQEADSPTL
Put plainly: Integrin α4β7 cell adhesion assay (RPMI8866 cells on MAdCAM-1). Format: cell-based. The note with it: RPMI8866 cells adhering to MAdCAM-1; α4β7-mediated cell adhesion; read-out: RPMI-8866 (α4β7)/MadCAM-1 IC50. As to the method: MAdCAM-1 was formulated with TBS buffer to a final concentration of […], 50 μl of the solution was transferred to a 96-well plate, and the plate was coated with same at 4° C. overnight. The plate was washed with TBS buffer three times, then 150 μl of a blocking solution (TBS buffer containing 1% BSA) was added, and the plate was blocked at 37° C. for 1 h. […] 50 μl of the cell suspension was transferred to a 96-well plate so that the cell density reached 2×10^5 cells/well. Then 1 μl of the compound at different concentrations or DMSO was added and the plate was incubated at 37° C. for 1 h or 2 h. The plate was washed with TBS buffer to remove non-adherent cells. 50 μl of a substrate (4-nitrophenyl-N-acetyl-o-D-glucosaminide) was added and the plate was incubated at 37° C. for 2 h. […] The IC50 value was calculated using GraphPad Prism 6 software.

Data set [3] is described as follows: Pharmacokinetic test in rats. Format: in vivo, SD rats. As for the experimental part: Experimental animals: Male SD rats, about 220 g, 6-8 weeks old, 6 rats/compound, purchased from Chengdu Ddossy Experimental Animals Co., Ltd.
Experimental design: on the day of the test, 6 SD rats/compound were randomly grouped according to their body weights. The animals were fasted with water available for 12 to 14 h one day before the administration and were fed 4 h after the administration.

Data set [4] is described as follows: Test of stability in liver microsomes (rat). Format: in vitro ADME. The note with it: 1 μM test compound, NADPH, 37° C. As to the method: (§1) In this experiment, liver microsomes of three species, including monkey, rat and mouse, were used as in vitro models to evaluate the metabolic stability of the test compound.
(§2) At 37° C., 1 μM of the test compound was co-incubated with microsomal protein and coenzyme NADPH. At given time points of the reaction (5 min, 10 min, 20 min, 30 min, and 60 min), the reaction was terminated by adding ice-cold acetonitrile containing an internal standard. The LC-MS/MS method was used to measure the concentration of the test compound in the sample. T1/2 was calculated using the natural logarithm (ln) of the residual rate of the drug in the incubation system and the incubation time. In addition, the intrinsic clearance in liver microsomes CLint(mic) and the intrinsic clearance in liver CLint(Liver) were further calculated.

A short description of data set [5]: Test of stability in liver microsomes (mouse). Format: in vitro ADME. The note with it: 1 μM test compound, NADPH, 37° C. As to the method: as §1, §2
A general note: Microsomes from liver hold many membrane-bound enzymes, among them those of drug oxidation.

Data set [6] is described as follows: Test of stability in liver microsomes (monkey). It counts as in vitro ADME. The note with it: 1 μM test compound, NADPH, 37° C. As to the method:
as §1, §2

Where [7] appears, read: read-out: Hepatic intrinsic clearance CLint(liver).
The mark [8] stands for this setting: read-out: Hepatic microsomal intrinsic clearance CLint (mic).

Counter-ions that a name gives are not always drawn.

The text below walks through data of patent publication US20260274797A1, “PROPIONIC ACID DERIVATIVE AND USE THEREOF IN MEDICINE” (Xizang Haisco Pharmaceutical Co., Ltd., priority 2022, published 2026).

By half-life is commonly meant the time in which the quantity being followed falls by half. Low readings indicate fast loss, high ones slow loss. What is called microsomal CLint is the capacity of the preparation to metabolise the compound, expressed as a volume cleared per time. One may read the AUC as the area under the concentration-time curve, a measure of exposure. Read a high AUC as high exposure. Usually clearance stands for the rate of elimination divided by the concentration. Low readings indicate inefficient removal, high ones efficient removal.

T1 sequence (P05556 21-798, one chain of several): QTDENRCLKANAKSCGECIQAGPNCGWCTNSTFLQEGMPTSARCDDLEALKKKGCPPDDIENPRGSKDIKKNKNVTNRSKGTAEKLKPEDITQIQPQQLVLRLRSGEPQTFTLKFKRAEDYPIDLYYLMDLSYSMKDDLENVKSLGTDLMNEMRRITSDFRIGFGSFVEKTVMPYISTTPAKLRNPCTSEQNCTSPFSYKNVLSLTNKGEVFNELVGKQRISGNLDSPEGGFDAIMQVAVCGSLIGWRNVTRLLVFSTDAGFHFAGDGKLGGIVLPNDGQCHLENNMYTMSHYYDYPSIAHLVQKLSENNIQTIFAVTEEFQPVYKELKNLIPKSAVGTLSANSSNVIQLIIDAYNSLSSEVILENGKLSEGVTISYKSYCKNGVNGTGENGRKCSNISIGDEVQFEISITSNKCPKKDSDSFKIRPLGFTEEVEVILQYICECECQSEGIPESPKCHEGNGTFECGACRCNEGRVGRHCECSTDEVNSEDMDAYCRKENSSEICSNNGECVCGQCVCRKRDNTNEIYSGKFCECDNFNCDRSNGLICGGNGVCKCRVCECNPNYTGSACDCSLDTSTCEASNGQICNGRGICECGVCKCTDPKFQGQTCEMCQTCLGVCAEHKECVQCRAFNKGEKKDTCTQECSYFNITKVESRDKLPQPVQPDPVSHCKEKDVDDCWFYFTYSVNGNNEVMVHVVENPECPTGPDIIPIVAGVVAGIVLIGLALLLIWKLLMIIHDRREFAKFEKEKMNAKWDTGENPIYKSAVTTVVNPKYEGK

In turn, `Cc1cc(F)cc(C)c1-c1cc(C(CC(=O)O)NC(=O)C(CC(C)C)n2cc(CCN(C)CC3CC3(F)F)c(C(F)(F)F)cc2=O)cc2c1CCC2` (single isomer, unassigned) [Compound 1-2] came in with an IC50 in data set [1] above 100 nM.
On to `COc1cc(C)c(-c2c(F)c(C(CC(=O)O)NC(=O)C(CC(C)C)n3cc(CCN(C)C)c(C(F)(F)F)cc3=O)c(F)c3c2CCC3)c(C)c1` (single isomer, unassigned) [Trifluoroacetate salt of compound 21-2], for which the IC50 in data set [1] is above 500 nM; in data set [2] it was below 1 nM.
With `Cc1cc(F)cc(C)c1-c1c(F)c(C(CC(=O)O)NC(=O)[C@H](CC(C)C)n2cc(CCC3CCCN3C)c(C(F)(F)F)cc2=O)c(F)c2c1CCC2` (single isomer, unassigned) [Trifluoroacetate salt of compound 28-2], in data set [1], the IC50 was above 100 nM.
In data set [1], `COc1cc(C)c(-c2c(F)c(C(CC(=O)O)NC(=O)C(CC(C)C)n3cc(CCN(C)C)c(C(F)(F)F)cc3=O)c(F)c3c2CCC3)c(C)c1` (stereo not shown) [Compound 21-A] showed an IC50 above 100 nM.
In the case of `Cc1cc(F)cc(C)c1-c1c(F)c(C(CC(=O)O)NC(=O)[C@H](CC(C)C)n2cc(CC3CN(C(C)C)C3)c(C(F)(F)F)cc2=O)c(F)c2c1CCC2` (stereo partly shown) [Compound 32-2], the CL in data set [3] (IV: 1 mg/kg) was found to be 20.2 mL/min/kg.
Turning to `Cc1ccc2[nH]ncc2c1-c1c(F)c(C(CC(=O)O)NC(=O)[C@H](CC(C)C)n2cc(CCN(C)C)c(C(F)(F)F)cc2=O)c(F)c2c1CCC2` (stereo partly shown) [Compound 33-2], in data set [1], the IC50 was above 100 nM and the α4β1/α4β7 came to 643. The IC50 in data set [2] is below 0.5 nM.
The corresponding values for `[2H]C([2H])([2H])Oc1cc(C)c(-c2c(F)c([C@H](CC(=O)O)NC(=O)C(CC(C)C)n3cc(CCN4CCC4)c(C(F)(F)F)cc3=O)c(F)c3c2CCC3)c(C)c1` (stereo partly shown) [Compound 40-2] are above 300 nM, 1143 and below 0.5 nM.
Regarding `Cc1cc(-c2c(C)cc(F)cc2C)cc([C@H](CC(=O)O)NC(=O)[C@H](CC(C)C)n2cc(CCN(C)C)c(C(F)(F)F)cc2=O)c1F` [Control compound A], the half-life at 1 μM in data set [4] amounted to 35.7 min; in data set [5], 49.3 min; in data set [6], 10.6 min. Further, the results for the CLint scaled at 1 μM in data set [4] (setting [7]), in data set [5] (setting [7]) and in data set [6] (setting [7]) were 69.9 mL/min/kg, 111 mL/min/kg and 176 mL/min/kg, respectively. Further, the microsomal CLint at 1 μM came to 38.8 µL/min/mg in data set [4] (setting [8]), 28.1 µL/min/mg in data set [5] (setting [8]) and 130 µL/min/mg in data set [6] (setting [8]). Moreover, the F in data set [3] (PO: 10 mg/kg vs iv […] (footnote, control compound A)) worked out at 23.9%. Further, the area under the curve (AUC) in data set [3] (male, SD, rat, plasma, PO: 10 mg/kg (footnote, control compound A)) is 900 ng·h/mL. The clearance in data set [3] (male, SD, rat, plasma, iv 2.5 mg/kg (footnote, control compound A)) worked out at 45.8 mL/min/kg.
As for `Cc1cc(F)cc(C)c1-c1cc(C(CC(=O)O)NC(=O)C(CC(C)C)n2cc(CC3CCN(C(C)C)CC3)c(C(F)(F)F)cc2=O)cc2c1CCC2` (stereo not shown) [Trifluoroacetate salt of compound 22-2], the IC50 in data set [1] is above 100 nM; in data set [2] it was below 0.5 nM.
The corresponding values for `Cc1cc(F)cc(C)c1-c1c(F)c(C(CC(=O)O)NC(=O)C(CC(C)C)n2cc(CCC3CCN(C)C3)c(C(F)(F)F)cc2=O)c(F)c2c1CCC2` (stereo not shown) [Trifluoroacetate salt of compound 26-2] are above 100 nM and below 1 nM.
